Reference: PubChem BioAssay (NCI)
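Test compounds were applied to cells in 96-well plates for 48 hours at 5 doses. The concentration for 50% growth inhibition is given as GI50. TGI marks complete inhibition of growth.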

What was measured:
Assay in all cases: growth of human tumour cells (NCI), 48 h
OVCAR-8 ovarian = test system: OVCAR-8 ovarian
MALME-3M melanoma = test system: MALME-3M melanoma
UO-31 renal = test system: UO-31 renal
UACC-257 melanoma = test system: UACC-257 melanoma
A549 NSCLC = test system: A549 NSCLC
SW-620 colon = test system: SW-620 colon
CAKI-1 renal = test system: CAKI-1 renal
MDA-MB-435 = test system: MDA-MB-435
HL-60(TB) leukemia = test system: HL-60(TB) leukemia
MDA-MB-231 breast = test system: MDA-MB-231 breast
HT29 colon = test system: HT29 colon
NCI/ADR-RES ovarian = test system: NCI/ADR-RES ovarian
DU-145 prostate = test system: DU-145 prostate
786-0 renal = test system: 786-0 renal
OVCAR-5 ovarian = test system: OVCAR-5 ovarian
K-562 leukemia = test system: K-562 leukemia
CCRF-CEM leukemia = test system: CCRF-CEM leukemia
OVCAR-4 ovarian = test system: OVCAR-4 ovarian
SNB-19 CNS = test system: SNB-19 CNS
HCT-15 colon = test system: HCT-15 colon
ACHN renal = test system: ACHN renal
SK-MEL-28 melanoma = test system: SK-MEL-28 melanoma
OVCAR-3 ovarian = test system: OVCAR-3 ovarian
RPMI-8226 leukemia = test system: RPMI-8226 leukemia
NCI-H226 lung = test system: NCI-H226 lung
BT-549 breast = test system: BT-549 breast
RXF 393 renal = test system: RXF 393 renal
NCI-H460 lung = test system: NCI-H460 lung
IGROV1 ovarian = test system: IGROV1 ovarian
NCI-H23 lung = test system: NCI-H23 lung
COLO 205 colon = test system: COLO 205 colon
MOLT-4 leukemia = test system: MOLT-4 leukemia
HCC-2998 colon = test system: HCC-2998 colon
A498 renal = test system: A498 renal
SK-MEL-5 melanoma = test system: SK-MEL-5 melanoma
M14 melanoma = test system: M14 melanoma
LOX IMVI melanoma = test system: LOX IMVI melanoma
MCF7 breast = test system: MCF7 breast
SF-539 CNS = test system: SF-539 CNS
SK-OV-3 ovarian = test system: SK-OV-3 ovarian
KM12 colon = test system: KM12 colon
HOP-62 NSCLC = test system: HOP-62 NSCLC
HS 578T breast = test system: HS 578T breast
SR leukemia = test system: SR leukemia
PC-3 prostate = test system: PC-3 prostate
HCT-116 colon = test system: HCT-116 colon
SNB-75 CNS = test system: SNB-75 CNS
SK-MEL-2 melanoma = test system: SK-MEL-2 melanoma
HOP-92 NSCLC = test system: HOP-92 NSCLC
EKVX NSCLC = test system: EKVX NSCLC
SF-295 CNS = test system: SF-295 CNS
NCI-H522 lung = test system: NCI-H522 lung
TK-10 renal = test system: TK-10 renal
T-47D breast = test system: T-47D breast
SF-268 CNS = test system: SF-268 CNS

## C=C1C(=O)O[C@H]2[C@H]1CC/C(COC(=O)NCCc1cccc(OC)c1)=C\CC[C@@]1(C)O[C@@H]21
OVCAR-8 ovarian
  GI50: 2260 nM
  TGI: 8030 nM
MALME-3M melanoma
  GI50: 1840 nM
  TGI: 3610 nM
UO-31 renal
  GI50: 1390 nM
  TGI: 2860 nM
UACC-257 melanoma
  GI50: 1530 nM
  TGI: 3400 nM
A549 NSCLC
  GI50: 7280 nM
  TGI: 21900 nM
SW-620 colon
  GI50: 502 nM
  TGI: 2010 nM
CAKI-1 renal
  GI50: 1190 nM
  TGI: 2520 nM
MDA-MB-435
  GI50: 1580 nM
  TGI: 3700 nM
HL-60(TB) leukemia
  GI50: 1360 nM
  TGI: 4340 nM
MDA-MB-231 breast
  GI50: 1560 nM
  TGI: 3470 nM
HT29 colon
  GI50: 1140 nM
  TGI: 2880 nM
NCI/ADR-RES ovarian
  GI50: 2950 nM
  TGI: 10800 nM
DU-145 prostate
  GI50: 892 nM
  TGI: 2160 nM
786-0 renal
  GI50: 1370 nM
  TGI: 3070 nM
OVCAR-5 ovarian
  GI50: 2250 nM
  TGI: 6050 nM
K-562 leukemia
  GI50: 613 nM
  TGI: 6250 nM
CCRF-CEM leukemia
  GI50: 340 nM
  TGI: 1930 nM
OVCAR-4 ovarian
  GI50: 1780 nM
  TGI: 4370 nM
SNB-19 CNS
  GI50: 1430 nM
  TGI: 3130 nM
HCT-15 colon
  GI50: 1020 nM
  TGI: 2620 nM
ACHN renal
  GI50: 1120 nM
  TGI: 2580 nM
SK-MEL-28 melanoma
  GI50: 1350 nM
  TGI: 3300 nM
OVCAR-3 ovarian
  GI50: 995 nM
  TGI: 2380 nM
RPMI-8226 leukemia
  GI50: 917 nM
  TGI: 4340 nM
NCI-H226 lung
  GI50: 1570 nM
  TGI: 3600 nM
BT-549 breast
  GI50: 1510 nM
  TGI: 3120 nM
RXF 393 renal
  GI50: 673 nM
  TGI: 2380 nM
NCI-H460 lung
  GI50: 3940 nM
  TGI: 16600 nM
IGROV1 ovarian
  GI50: 1260 nM
  TGI: 3050 nM
NCI-H23 lung
  GI50: 1860 nM
  TGI: 4330 nM
COLO 205 colon
  GI50: 1550 nM
  TGI: 3280 nM
MOLT-4 leukemia
  GI50: 2090 nM
  TGI: 5000 nM
HCC-2998 colon
  GI50: 1680 nM
  TGI: 3290 nM
A498 renal
  GI50: 2350 nM
  TGI: 7760 nM
SK-MEL-5 melanoma
  GI50: 1840 nM
  TGI: 3570 nM
M14 melanoma
  GI50: 1290 nM
  TGI: 2920 nM
LOX IMVI melanoma
  GI50: 1340 nM
  TGI: 2810 nM
MCF7 breast
  GI50: 494 nM
  TGI: 2100 nM
SF-539 CNS
  GI50: 1490 nM
  TGI: 2960 nM
SK-OV-3 ovarian
  GI50: 13600 nM
  TGI: 27700 nM
KM12 colon
  GI50: 4270 nM
  TGI: 15600 nM
HOP-62 NSCLC
  GI50: 4390 nM
  TGI: 16600 nM
HS 578T breast
  GI50: 3430 nM
  TGI: 21600 nM
SR leukemia
  GI50: 511 nM
  TGI: 2860 nM
PC-3 prostate
  GI50: 2300 nM
  TGI: 5540 nM
HCT-116 colon
  GI50: 714 nM
  TGI: 2080 nM
SNB-75 CNS
  GI50: 1470 nM
  TGI: 4710 nM
SK-MEL-2 melanoma
  GI50: 1730 nM
  TGI: 3650 nM
HOP-92 NSCLC
  GI50: 1840 nM
  TGI: 3960 nM
EKVX NSCLC
  GI50: 1780 nM
  TGI: 4250 nM
SF-295 CNS
  GI50: 7260 nM
  TGI: 20400 nM
NCI-H522 lung
  GI50: 1020 nM
  TGI: 2690 nM
TK-10 renal
  GI50: 1610 nM
  TGI: 3250 nM
T-47D breast
  GI50: 1610 nM
  TGI: 4030 nM
SF-268 CNS
  GI50: 1780 nM
  TGI: 4910 nM
